Results published in patent publication US12377104B1, “Methods for treating a fatty liver disease” (Madrigal Pharmaceuticals, Inc., priority 2024, dated 2025).

Legend:
[1] = system: well-compensated NASH cirrhotic patients; test: MAESTRO-NAFLD-1 open label well-compensated NASH cirrhotic arm, 52 weeks; type: in vivo, human
Method: LV was assessed using a validated artificial intelligence model for segmenting the liver on standard MR images. […] Eligibility required at least 3 metabolic risk factors (metabolic syndrome), and NASH cirrhosis diagnosed on liver biopsy or according to accepted criteria. […] Demographics include mean age 62.7 (9.0 (SD)), female 64%, BMI 35.4 (7.4), diabetes 70%, hypertension 77%, dyslipidemia >70%, mean ASCVD score 16.1%, hypothyroid 32.4%, 51% on statins. […] Stage of cirrhosis was inversely correlated with baseline PDFF.

[2] = Effect of food (high-fat meal) on pharmacokinetics; type: in vivo, human; conditions: high-fat meal vs fasted
[3] = system: adults with biopsy-confirmed NASH and fibrosis stage F1B, F2, or F3; test: MAESTRO-NASH phase 3: liver biopsy end points at week 52; type: in vivo, human
Method: A phase 3 trial was conducted involving adults with biopsy-confirmed NASH and a fibrosis stage of F1B, F2, or F3 (stages range from F0 [no fibrosis] to F4 [cirrhosis]).
Randomization was performed with the use of an interactive Webresponse system. Patients were stratified according to status with respect to type 2 diabetes (presence or absence) and fibrosis stage (F1, F2, or F3). Throughout the trial, patients received nutrition and exercise counseling according to current recommendations. Patients were unaware of the trial-group assignments, as were site personnel, personnel of contract research organizations, and sponsor personnel who were conducting the trial, administering the investigational product, and performing clinical assessments. Selected persons were aware of the trial-group assignments to facilitate dispensation of resmetirom or placebo. All trial personnel were unaware of the results of postbaseline tests that could reveal the trial-group assignments, including levels of total and free thyroxine (T4), sex hormone-binding globulin, and lipids as well as magnetic resonance imaging proton density fat fraction (MRI-PDFF).
Screening biopsy results were used as baseline values for histologic variables, and a second biopsy was performed at week 52. Biopsy specimens on glass slides were assessed centrally by two independent expert pathologists (the second and third authors) to determine the NAFLD activity score and fibrosis stage (according to NASH Clinical Research Network criteria). For the primary analysis, all screening or baseline biopsy specimens and week 52 biopsy specimens on glass slides were reread independently by both pathologists in large unpaired groups of screening or baseline biopsy specimens (50 to 100 slides per group, spiked with biopsy specimens obtained from patients who had screening failure) or a separate matched set of week 52 biopsy specimens (50 to 100 slides per group). The pathologists were unaware of the trial-group assignments, patient characteristics, and each other's assessments. A consensus review was conducted as a supportive analysis wherein the two pathologists read blinded (to time of biopsy and identification code) digitized images for cases in which there was disagreement on the primary read with respect to response status for the two primary end points or a reduction in fibrosis by at least two stages. Only the NAFLD activity scores or fibrosis components that determined the response for which there was disagreement between the pathologists were reread. Details are provided in the Supplementary Appendix.
The primary statistical analysis model used the Cochran-Mantel-Haenszel test to determine response with respect to the biopsy end points.

[4] = system: adults with biopsy-confirmed NASH; test: MAESTRO-NASH: non-invasive predictive markers of biopsy response; type: in vivo, human; conditions: 100 mg
Method: Histologic endpoints were assessed after 52 weeks. […] The non-invasive correlates of response in the MAESTRO-NASH trial are summarized below.
Adults with ≥3 metabolic risk factors, liver stiffness ≥8.5 kPa, hepatic fat ≥8%, biopsy-confirmed NASH with F1B-F3 fibrosis, and NAS≥4 were eligible to participate in MAESTRO-NASH.
Random Forest model was utilized to determine the biomarkers and imaging tests both at baseline and change from baseline that had the most important association with response on biopsy for NASH resolution and/or fibrosis improvement. The data was based on baseline characteristics and change from baseline of more than 40 variables: biomarkers, clinical features, and imaging. This analysis confirmed the importance of MRI-PDFF (FIGS. 42-43).

CYP2C8 = molecular target: T1, CYP2C8 (Homo sapiens, UniProt P10632); test: Concomitant use with a CYP2C8 inhibitor; parameters: from tissue; host or cells: human subjects in vivo (endogenous enzyme); conditions: in vivo
T1 sequence (P10632 1-490): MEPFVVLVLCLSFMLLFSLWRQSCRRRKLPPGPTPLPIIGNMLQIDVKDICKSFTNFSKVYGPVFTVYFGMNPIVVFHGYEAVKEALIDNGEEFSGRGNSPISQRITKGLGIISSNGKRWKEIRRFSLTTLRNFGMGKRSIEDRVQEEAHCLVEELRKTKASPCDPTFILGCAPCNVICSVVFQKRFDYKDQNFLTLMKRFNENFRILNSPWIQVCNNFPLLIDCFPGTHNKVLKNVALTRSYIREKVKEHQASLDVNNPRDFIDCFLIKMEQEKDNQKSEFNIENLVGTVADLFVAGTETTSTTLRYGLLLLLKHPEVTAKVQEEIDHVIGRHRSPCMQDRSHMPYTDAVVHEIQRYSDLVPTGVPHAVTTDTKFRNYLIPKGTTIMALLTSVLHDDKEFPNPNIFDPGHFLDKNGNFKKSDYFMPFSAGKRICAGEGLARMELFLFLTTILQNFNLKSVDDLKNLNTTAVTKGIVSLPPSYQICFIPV

[5] = cirrhotic NASH, PDFF≤5% at baseline, week 16

CC(C)c1cc(Oc2c(Cl)cc(-n3nc(C#N)c(=O)[nH]c3=O)cc2Cl)n[nH]c1=O [Resmetirom, 2-(3,5-dichloro-4-((5-isopropyl-6-oxo-1,6-dihydropyridazin-3-yl)oxy)phenyl)-3,5-dioxo-2,3,4,5-tetrahydro-1,2,4-triazine-6-carbonitrile]
fibroscan CAP change ([1]; 80-100 mg daily, week 52): −42 units
fibroscan kPa change ([1]; 80-100 mg daily, week 52): −7.6 kPa
LV mean %CFB [1, 5]: −16.3%
PDFF mean %CFB [1, 5]: −2.5%
ApoB reduction ([1]; in vivo): 20%
Blood pressure reduction ([1]; in vivo): 4-5 mm
GGT change ([1]; in vivo): −27%
LDL-C reduction ([1]; in vivo): 20%
Lp(a) reduction ([1]; in vivo): 30%
alkaline phosphatase (ALP) change ([1]; in vivo): −18%
safety and tolerability ([1]; in vivo): safe and well-tolerated
triglycerides reduction ([1]; in vivo): 21%
PDFF lowered by ([1]; patients with baseline PDFF>5%): 37%
Liver volume change ([1]; week 16): −15.9%
MRE lowered by ([1]; week 52): 0.68 kPa
patients with >15% reduction in LV ([1]; week 52): 73%
patients with MRE reduction of ≥15% ([1]; week 52): 34%
decrease in AUC with food [2]: 11%
decrease in Cmax with food [2]: 33%
Tmax ([2]; human, plasma, oral, read-out: delay in median Tmax with food): ~2 h
Both NASH resolution and fibrosis improvement by ≥1 stage, difference from placebo ([3]; 80 mg): 9.5 percentage points
Both NASH resolution and fibrosis improvement by ≥1 stage, percent with response ([3]; 80 mg): 14.2%
Fibrosis improvement by ≥1 stage with no worsening of NAFLD activity score, difference from placebo ([3]; 80 mg): 10.2 percentage points
Fibrosis improvement by ≥1 stage with no worsening of NAFLD activity score, percent with response ([3]; 80 mg): 24.2%
Improvement in each component of NAFLD activity score, difference from placebo ([3]; 80 mg): 16.1 percentage points
Improvement in each component of NAFLD activity score, percent with response ([3]; 80 mg): 23.3%
Improvement in fibrosis by ≥2 stages, difference from placebo ([3]; 80 mg): 5.6 percentage points
Improvement in fibrosis by ≥2 stages, percent with response ([3]; 80 mg): 8.3%
NASH resolution with no worsening of fibrosis, difference from placebo ([3]; 80 mg): 16.4 percentage points
NASH resolution with no worsening of fibrosis, percent with response ([3]; 80 mg): 25.9%
≥2-Point improvement in NAFLD activity score with improvement in fibrosis, difference from placebo ([3]; 80 mg): 10.5 percentage points
≥2-Point improvement in NAFLD activity score with improvement in fibrosis, percent with response ([3]; 80 mg): 18.8%
≥2-Point improvement in NAFLD activity score with no worsening of fibrosis, difference from placebo ([3]; 80 mg): 20.2 percentage points
≥2-Point improvement in NAFLD activity score with no worsening of fibrosis, percent with response ([3]; 80 mg): 41.3%
Both NASH resolution and fibrosis improvement by ≥1 stage, difference from placebo ([3]; 100 mg): 11.6 percentage points
Both NASH resolution and fibrosis improvement by ≥1 stage, percent with response ([3]; 100 mg): 16.0%
Fibrosis improvement by ≥1 stage with no worsening of NAFLD activity score, difference from placebo ([3]; 100 mg): 11.8 percentage points
Fibrosis improvement by ≥1 stage with no worsening of NAFLD activity score, percent with response ([3]; 100 mg): 25.9%
Improvement in each component of NAFLD activity score, difference from placebo ([3]; 100 mg): 20.9 percentage points
Improvement in each component of NAFLD activity score, percent with response ([3]; 100 mg): 27.9%
Improvement in fibrosis by ≥2 stages, difference from placebo ([3]; 100 mg): 7.4 percentage points
Improvement in fibrosis by ≥2 stages, percent with response ([3]; 100 mg): 10.1%
NASH resolution with no worsening of fibrosis, difference from placebo ([3]; 100 mg): 20.7 percentage points
NASH resolution with no worsening of fibrosis, percent with response ([3]; 100 mg): 29.9%
≥2-Point improvement in NAFLD activity score with improvement in fibrosis, difference from placebo ([3]; 100 mg): 13.0 percentage points
≥2-Point improvement in NAFLD activity score with improvement in fibrosis, percent with response ([3]; 100 mg): 21.2%
≥2-Point improvement in NAFLD activity score with no worsening of fibrosis, difference from placebo ([3]; 100 mg): 23.8 percentage points
≥2-Point improvement in NAFLD activity score with no worsening of fibrosis, percent with response ([3]; 100 mg): 44.9%
NASH resolution responders with at least a 30% PDFF response [4]: 96%
fibrosis improvement responders with at least a 30% PDFF response [4]: 88%
effect of concomitant CYP2C8 inhibitor on exposure (CYP2C8): increase resmetirom Cmax and AUC
